PMC2800825 (Biochemistry, 2009)
Where a chain is given by its changes, count along the chain named. Values joined by “and” are separate entries in the source; they are usually repeats but may differ in a detail not shown here. Equal values may be shown once. Read-outs that look alike come from different tables or passages of the source.

What was measured:
[1] = biological target: T1, Thr247Ala mutant E. coli DHOD (Escherichia coli, UniProt P0A7E1, T247A); settings: protio-DHO vs 5,5,6-^2H3 DHO, pH 8.5, 4 °C
[2] = biological target: T2, Asn246Ala mutant E. coli DHOD (Escherichia coli, UniProt P0A7E1, N246A); settings: protio-DHO vs 5,5,6-^2H3 DHO, pH 8.5, 4 °C
[3] = biological target: T3, Asn111Ala mutant E. coli DHOD (Escherichia coli, UniProt P0A7E1, N111A); settings: protio-DHO vs 5,5,6-^2H3 DHO, pH 8.5, 4 °C
[4] = biological target: T4, Asn111Asp mutant E. coli DHOD (Escherichia coli, UniProt P0A7E1, N111D); settings: protio-DHO vs 5,5,6-^2H3 DHO, pH 8.5, 4 °C
[5] = biological target: T5, Thr247Ser mutant E. coli DHOD (Escherichia coli, UniProt P0A7E1, T247S); assay: Reductive half-reaction with DHO, anaerobic stopped-flow; assay type: biochemical
T5 sequence (P0A7E1 1-336 T247S): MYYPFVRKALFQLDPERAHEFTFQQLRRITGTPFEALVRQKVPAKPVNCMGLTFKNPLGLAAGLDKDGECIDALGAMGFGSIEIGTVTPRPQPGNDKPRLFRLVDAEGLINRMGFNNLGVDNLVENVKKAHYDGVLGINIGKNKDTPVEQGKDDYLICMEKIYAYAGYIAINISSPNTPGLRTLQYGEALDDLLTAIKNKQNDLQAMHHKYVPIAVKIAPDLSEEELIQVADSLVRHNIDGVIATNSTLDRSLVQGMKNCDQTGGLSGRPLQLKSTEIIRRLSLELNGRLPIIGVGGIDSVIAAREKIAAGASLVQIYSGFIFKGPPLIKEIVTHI

[6] = biological target: T1, Thr247Ala mutant E. coli DHOD; assay: as above; assay type: biochemical
[7] = biological target: T6, Asn177Ala mutant E. coli DHOD (Escherichia coli, UniProt P0A7E1, N177A); assay: as above; assay type: biochemical
[8] = biological target: T7, Asn172Ala mutant E. coli DHOD (Escherichia coli, UniProt P0A7E1, N172A); assay: as above; assay type: biochemical
T7 sequence (P0A7E1 1-336 N172A): T5 sequence (P0A7E1 1-336 T247S) with N172A, S247T

[9] = biological target: T2, Asn246Ala mutant E. coli DHOD; assay: as above; assay type: biochemical
[10] = biological target: T8, Asn172Ala/Asn246Ala mutant E. coli DHOD (Escherichia coli, UniProt P0A7E1, N172A/N246A); assay type: biochemical; settings: pH 8.5, footnote b printed, text says examined at 25°
T8 sequence (P0A7E1 1-336 N172A/N246A): T5 sequence (P0A7E1 1-336 T247S) with N172A, N246A, S247T

[11] = biological target: T3, Asn111Ala mutant E. coli DHOD; assay: Reductive half-reaction with DHO, anaerobic stopped-flow; assay type: biochemical
[12] = biological target: T4, Asn111Asp mutant E. coli DHOD; assay: as above; assay type: biochemical
wild-type E. coli DHOD [13] = biological target: T9, wild-type E. coli DHOD (Escherichia coli, UniProt P0A7E1); settings: cited from earlier work
T9 sequence (P0A7E1 1-336): T5 sequence (P0A7E1 1-336 T247S) with S247T

[14] = biological target: T5, Thr247Ser mutant E. coli DHOD; settings: pH 8.5, 25 °C
[15] = biological target: T1, Thr247Ala mutant E. coli DHOD; settings: pH 8.5, 25 °C
[16] = biological target: T6, Asn177Ala mutant E. coli DHOD; settings: pH 8.5, 25 °C
[17] = biological target: T7, Asn172Ala mutant E. coli DHOD; settings: pH 8.5, 25 °C
[18] = biological target: T2, Asn246Ala mutant E. coli DHOD; settings: pH 8.5, 25 °C
[19] = biological target: T8, Asn172Ala/Asn246Ala mutant E. coli DHOD; settings: pH 8.5, 25 °C
[20] = biological target: T3, Asn111Ala mutant E. coli DHOD; settings: pH 8.5, 25 °C
[21] = biological target: T4, Asn111Asp mutant E. coli DHOD; settings: pH 8.5, 25 °C
wild-type E. coli DHOD [22] = biological target: T9, wild-type E. coli DHOD; assay: biochemical
[23] = biological target: T5, Thr247Ser mutant E. coli DHOD; assay: biochemical
[24] = biological target: T1, Thr247Ala mutant E. coli DHOD; assay: biochemical
[25] = biological target: T6, Asn177Ala mutant E. coli DHOD; assay: biochemical
[26] = biological target: T7, Asn172Ala mutant E. coli DHOD; assay: biochemical
[27] = biological target: T2, Asn246Ala mutant E. coli DHOD; assay: biochemical; settings: Kd of OA, Asn246Ala oxidized enzyme, pH 8.5, 25 °C
[28] = biological target: T8, Asn172Ala/Asn246Ala mutant E. coli DHOD; assay: biochemical
[29] = biological target: T3, Asn111Ala mutant E. coli DHOD; assay: biochemical
[30] = biological target: T4, Asn111Asp mutant E. coli DHOD; assay: biochemical

T6 sequence (P0A7E1 whole entry N177A): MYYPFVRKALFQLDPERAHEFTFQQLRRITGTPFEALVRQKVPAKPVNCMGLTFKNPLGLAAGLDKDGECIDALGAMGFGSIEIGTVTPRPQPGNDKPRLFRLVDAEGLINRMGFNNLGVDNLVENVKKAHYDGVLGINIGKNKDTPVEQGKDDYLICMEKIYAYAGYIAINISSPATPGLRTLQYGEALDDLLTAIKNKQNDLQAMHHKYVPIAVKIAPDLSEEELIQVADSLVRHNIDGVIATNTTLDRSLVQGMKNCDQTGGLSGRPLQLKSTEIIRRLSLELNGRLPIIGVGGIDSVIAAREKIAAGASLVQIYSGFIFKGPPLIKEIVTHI
T1 sequence (P0A7E1 whole entry T247A): as the sequence (P0A7E1 whole entry N177A) above, with A177N, T247A counted along it
T4 sequence (P0A7E1 whole entry N111D): as the sequence (P0A7E1 whole entry N177A) above, with N111D, A177N counted along it
T3 sequence (P0A7E1 whole entry N111A): as the sequence (P0A7E1 whole entry N177A) above, with N111A, A177N counted along it
T2 sequence (P0A7E1 whole entry N246A): as the sequence (P0A7E1 whole entry N177A) above, with A177N, N246A counted along it

[2H]C1([2H])C(=O)NC(=O)NC1([2H])C(=O)O (stereo not drawn) [5,5,6-^2H3 DHO]
KIE ^D(kred/Kd) [1]: 6.3 ± 0.4 | KIE ^D(kred/Kd) [2]: 6.3 ± 0.4 | KIE ^D(kred/Kd) [3]: 5.9 ± 0.3 | KIE ^D(kred/Kd) [4]: 5.3 ± 0.2

O=C1C[C@@H](C(=O)O)NC(=O)N1 [DHO, dihydroorotate]
Kd [5]: 45 ± 5 µM | kred (reduction rate constant) ([5]; Thr247Ser, pH 8.5, 4 °C): 58.8 ± 1.1 s⁻¹ | observed rate constant of the final phase, independent of DHO concentration ([5]; Thr247Ser, pH 8.5, 4 °C): ~ 0.02 s^−1 | Kd [6]: 198 ± 16 µM | fold decrease in reduction rate constant vs wild-type ([6]; Thr247Ala): ~ 8 fold | fold increase in Kd of DHO vs wild-type ([6]; Thr247Ala): ~ 10 fold | kred (reduction rate constant) ([6]; Thr247Ala, pH 8.5, 4 °C): 5.52 ± 0.09 s⁻¹ | Kd [7]: 22 ± 2 µM | fold decrease in reduction rate constant vs wild-type ([7]; Asn177Ala): ~ 800 fold | kred (reduction rate constant) ([7]; Asn177Ala, pH 8.5, 4 °C): 0.0586 ± 0.0004 s⁻¹ | Kd [8]: 278 ± 9 µM | fold increase in Kd of DHO vs wild-type ([8]; Asn172Ala): ~ 14 fold | kred (reduction rate constant) ([8]; Asn172Ala, pH 8.5, 4 °C): 0.00437 ± 0.0002 s⁻¹ and 0.00437 ± 0.00002 s⁻¹ | Kd [9]: 47000 µM | fold decrease in reduction rate constant vs wild-type ([9]; Asn246Ala): ~ 570 fold | fold increase in apparent Kd for DHO vs wild-type ([9]; Asn246Ala): ~ 2,000 fold | kred (reduction rate constant) ([9]; Asn246Ala, pH 8.5, 4 °C): 0.081 ± 0.002 s⁻¹ | kred (reduction rate constant) [10]: ~0.002 ^b s^−1 | Kd [11]: 1040 µM | fold decrease in kred vs wild-type ([11]; Asn111Ala): ~ 4600 fold | fold increase in Kd of DHO vs wild-type ([11]; Asn111Ala): ~ 50 fold | kred (reduction rate constant) ([11]; Asn111Ala, pH 8.5, 4 °C): 0.0100 ± 0.0001 s⁻¹ | fold slower reduction rate constant than wild-type [12]: ~ 450 fold | kred (reduction rate constant) ([12]; pH 8.5, 4 °C, estimated): ~0.1 s⁻¹ | kred (reduction rate constant) (wild-type E. coli DHOD [13]; pH 8.5, 4 °C): 46 s⁻¹ | Kd (wild-type E. coli DHOD [13]; read-out: Apparent Kd,DHO, pH 8.5, 4 °C): 20 µM

O=C(O)c1cc(=O)[nH]c(=O)[nH]1 [OA, orotate]
Kd(mutant)/Kd(Wild-Type) for OA [14]: 1.1 | Kd(mutant)/Kd(Wild-Type) for OA [15]: 12 | Kd(mutant)/Kd(Wild-Type) for OA [16]: 8 | Kd(mutant)/Kd(Wild-Type) for OA [17]: 65 | Kd(mutant)/Kd(Wild-Type) for OA [18]: 150 and 152 | Kd(mutant)/Kd(Wild-Type) for OA [19]: ~ 14700 | Kd(mutant)/Kd(Wild-Type) for OA [20]: 14 | Kd(mutant)/Kd(Wild-Type) for OA [21]: ≫ 22000 | Kd (wild-type E. coli DHOD [22]): 3.4 ± 0.8 µM | Kd [23]: 3.8 ± 0.5 µM | Kd [24]: 39.3 ± 1.6 µM | Kd [25]: 27.5 ± 1.5 µM | Kd [26]: 220 ± 9 µM | Kd [27]: 520 µM and 518 µM | Kd [28]: ~50000 µM | Kd [29]: 47.2 ± 0.2 µM | Kd [30]: > 75000 µM

NC(CO)(CO)CO.O=C(O)c1cc(=O)[nH]c(=O)[nH]1 [OA-Tris salt]
solubility in water: at least 400 mM
